# Entries after “also recorded” stand apart in the source; their conditions may differ.
# What was measured:
# [1] = tested on: Avian Pathogenic Escherichia coli multi-resistant strain; assay: Inhibition zones, disc test; type: cell-based
# [2] = tested on: gram-positive and gram-negative bacteria including multi-resistant bacteria; assay: In vitro testing of antibacterial properties; type: cell-based
molecule,measurement,setting,value
"Cc1cc(C)nc(NS(=O)(=O)c2ccc(N)cc2)n1 [Sulfadimidine, reference compound]",zone of inhibition at 300 µg/disc,"[1]; Escherichia coli, 300 μg per disc",0 mm
"CN(C)[C@@H]1C(O)=C(C(N)=O)C(=O)[C@@]2(O)C(O)=C3C(=O)c4c(O)cccc4[C@@](C)(O)[C@H]3C[C@@H]12 [Tetracycline, reference compound]",zone of inhibition at 30 µg/disc,"[1]; Escherichia coli, read-out: Inhibition zone",0 mm
Trimethoprim sulphate [reference compound],Inhibition zone,[1]; 1.25 μg + 23.75 μg per disc,0 mm
1-amino-tetratriacontyl-henicosa-20-on-21-al [CM],Antibacterial properties (in words),[2],shows antibacterial properties
same,Inhibition zone,[1]; 10 μL of solution (350 μg/1 μL) per disc,8 mm
same,Inhibition zone,[1]; 15 μL of solution (350 μg/1 μL) per disc,9 mm
same,Inhibition zone,[1]; 20 μL of solution (350 μg/1 μL) per disc,10 mm
same,Inhibitory activity against the strain (in words),[1]; compared with antibiotics in their standard dose,has an effect on the inhibition; also recorded: shows inhibitory activity
"CC1(C)S[C@@H]2[C@H](NC(=O)[C@H](N)c3ccc(O)cc3)C(=O)N2[C@H]1C(=O)O [Amoxicillin, reference compound]",zone of inhibition at 25 µg/disc,"[1]; Escherichia coli, 25 μg per disc",0 mm

# — patent US11180444B2, “Polyimino ketoaldehydes” (NOVUM SPERO LTD., priority 2017, dated 2021)
